The values below come from US9249096B2, “Pyrrolinone carboxamide compounds useful as endothelial lipase inhibitors” (Bristol-Myers Squibb Company, priority 2011, dated 2016).

This experiment concerns the target endothelial lipase (EL) (Homo sapiens (Human), UniProt Q9Y5X9). Put plainly: Endothelial lipase (EL) enzymatic assay with fluorescent substrate A10070 in DMPG vesicles. The experiment is classed as biochemical. The note with it: conditioned media from HT-1080 cells overexpressing endogenous EL; 20 min preincubation at 37° C.; read-out: HLE_EL_CRC IC50. As to the method:
Endothelial lipase activity was measured using a fluorescent substrate, A10070, (Invitrogen, CA) doped into an artificial vesicle containing DMPG (Avanti Polar Lipids) as the excipient. Vesicles were prepared by combining 285 uL of 1 mM DMPG in a 1:1 mixture of MeOH and CHCl3 with 15 uL of 1 mM A10070 in a 1:1 mixture of MeOH and CHCl3. The mixture was dried under nitrogen and resuspended in 150 uL of 50 mM HEPES pH 8.0 buffer containing 100 mM NaCl and 0.2 mM EDTA. The sample was allowed to sit at rt for 15 min and then was sonicated 3×4 mins on ice with a Branson Sonicator using duty cycle 1. This preparation provides vesicles with a mole fraction of 0.05 for the FRET substrate.
The enzymatic assay was measured using white, opaque 96-well half area plates. Each well contained 60 uL of assay buffer (50 mM HEPES pH 8.0, 50 mM NaCl and 1 mM CaCl2) and 2 ul of a DMSO solution containing compound of interest. Conditioned media obtained from HT-1080 cells, which were transformed by RAGE technology (Athersys) to overexpress endogenous EL, was added and the reaction was allowed to incubate for 20 min at 37° C. with gentle agitation. The reaction was started by the addition of 20 uL of a 1:4 dilution of vesicles. The final total reaction volume was 100 uL. The reaction rates were measured on a Gemini plate reader with an excitation wavelength of 488 nm and a emission of 530 nm. Readings were taken every 20 seconds for 10 min with agitation between each reading. The slope of the linear portion of the readout was used to calculate the rate of the reaction.
The exemplified examples disclosed in the present invention were tested in the EL assay described above and found having EL inhibitory activity.

Sequence of endothelial lipase (EL) (Q9Y5X9 21-500): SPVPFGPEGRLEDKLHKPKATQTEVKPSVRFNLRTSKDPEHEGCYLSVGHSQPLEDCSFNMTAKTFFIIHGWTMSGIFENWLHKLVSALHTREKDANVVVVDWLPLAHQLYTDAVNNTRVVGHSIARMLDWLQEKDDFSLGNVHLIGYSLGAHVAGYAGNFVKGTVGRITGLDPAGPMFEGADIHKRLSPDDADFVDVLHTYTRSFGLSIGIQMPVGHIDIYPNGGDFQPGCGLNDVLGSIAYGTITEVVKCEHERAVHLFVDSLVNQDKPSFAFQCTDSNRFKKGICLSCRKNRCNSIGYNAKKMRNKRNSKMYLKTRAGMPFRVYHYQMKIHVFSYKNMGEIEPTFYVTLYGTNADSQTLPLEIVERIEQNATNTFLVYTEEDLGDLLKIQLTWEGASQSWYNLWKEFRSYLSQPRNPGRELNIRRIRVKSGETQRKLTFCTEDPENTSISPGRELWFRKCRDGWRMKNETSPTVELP

For orientation: IC50 means the concentration needed to halve the response being measured. In the case of `CN1C(=O)C(O)=C(C(=O)NCCCc2ccc(Cl)c(Cl)c2)C1CCc1ccccc1` (single isomer, unassigned; isomer a) [Example 195, N-(3-(3,4-dichlorophenyl)propyl)-4-hydroxy-1-methyl-5-oxo-2-phenethyl-2,5-dihydro-1H-pyrrole-3-carboxamide (isomer A)], the IC50 was 523 nM. Then `CN1CC(C(=O)NCCc2ccc(Cl)c(Cl)c2)=C(O)C1=O` [Example 1, N-(3,4-dichlorophenethyl)-4-hydroxy-1-methyl-5-oxo-2,5-dihydro-1H-pyrrole-3-carboxamide], with 528 nM. As to `CN1CC(C(=O)NCCc2ccccc2)=C(O)C1=O` [Example 3, 4-hydroxy-1-methyl-5-oxo-N-phenethyl-2,5-dihydro-1H-pyrrole-3-carboxamide], the IC50 came to 2950 nM. Take `CN1CC(C(=O)NCCc2ccc(Cl)cc2)=C(O)C1=O` [Example 5, N-(4-chlorophenethyl)-4-hydroxy-1-methyl-5-oxo-2,5-dihydro-1H-pyrrole-3-carboxamide]: the IC50 is 559 nM. As to `CN1C(=O)C(O)=C(C(=O)NCCCc2ccc(Cl)c(Cl)c2)C1C(C)(C)C` (stereo not drawn) [Example 17, 2-tert-butyl-N-(3-(3,4-dichlorophenyl)propyl)-4-hydroxy-1-methyl-5-oxo-2,5-dihydro-1H-pyrrole-3-carboxamide], the IC50 amounted to 430 nM.

For `Cc1ccc(CC2C(C(=O)NCCCc3ccc(Cl)c(Cl)c3)=C(O)C(=O)N2C)cc1` (stereo not drawn) [Example 30, N-(3-(3,4-dichlorophenyl)propyl)-4-hydroxy-1-methyl-2-(4-methylbenzyl)-5-oxo-2,5-dihydro-1H-pyrrole-3-carboxamide], the IC50 worked out at 584 nM. For `O=C(NCCCc1ccc(Cl)c(Cl)c1)C1=C(O)C(=O)N(C2CCC2)C1` [Example 39, 1-cyclobutyl-N-(3-(3,4-dichlorophenyl)propyl)-4-hydroxy-5-oxo-2,5-dihydro-1H-pyrrole-3-carboxamide] the value was 5.09 nM; for `O=C(NCCCc1ccc(Cl)c(Cl)c1)C1=C(O)C(=O)N(Cc2ccccc2)C1` [Example 40, 1-benzyl-N-(3-(3,4-dichlorophenyl)propyl)-4-hydroxy-5-oxo-2,5-dihydro-1H-pyrrole-3-carboxamide], 3.65 nM.

On to `CC(C)CN1CC(C(=O)NCCCc2ccc(Cl)c(Cl)c2)=C(O)C1=O` [Example 42, N-(3-(3,4-dichlorophenyl)propyl)-4-hydroxy-1-isobutyl-5-oxo-2,5-dihydro-1H-pyrrole-3-carboxamide], for which the IC50 stood at 2.93 nM. Turning to `O=C(NCCCc1ccc(Cl)c(Cl)c1)C1=C(O)C(=O)N(CCc2ccccc2)C1` [Example 44, N-(3-(3,4-dichlorophenyl)propyl)-4-hydroxy-5-oxo-1-phenethyl-2,5-dihydro-1H-pyrrole-3-carboxamide], the IC50 is 3.22 nM.

On to `CC(C)CCN1CC(C(=O)NCCCc2ccc(Cl)c(Cl)c2)=C(O)C1=O` [Example 45, N-(3-(3,4-dichlorophenyl)propyl)-4-hydroxy-1-isopentyl-5-oxo-2,5-dihydro-1H-pyrrole-3-carboxamide], for which the IC50 was found to be 2.71 nM. For `CCCCN1CC(C(=O)NCCCc2ccc(Cl)c(Cl)c2)=C(O)C1=O` [Example 46, 1-butyl-N-(3-(3,4-dichlorophenyl)propyl)-4-hydroxy-5-oxo-2,5-dihydro-1H-pyrrole-3-carboxamide] the value was 3.25 nM; for `O=C(NCCCc1ccc(Cl)c(Cl)c1)C1=C(O)C(=O)N(Cc2cccc(Cl)c2)C1` [Example 47, 1-(3-chlorobenzyl)-N-(3-(3,4-dichlorophenyl)propyl)-4-hydroxy-5-oxo-2,5-dihydro-1H-pyrrole-3-carboxamide], 3.3 nM. In the case of `O=C(NCCCc1ccc(Cl)c(Cl)c1)C1=C(O)C(=O)N(Cc2cccc(F)c2)C1` [Example 50, N-(3-(3,4-dichlorophenyl)propyl)-1-(3-fluorobenzyl)-4-hydroxy-5-oxo-2,5-dihydro-1H-pyrrole-3-carboxamide], the IC50 came out at 5.99 nM.

Turning to `O=C(NCCCc1ccc(Cl)c(Cl)c1)C1=C(O)C(=O)N(Cc2ccc(F)cc2)C1` [Example 51, N-(3-(3,4-dichlorophenyl)propyl)-1-(4-fluorobenzyl)-4-hydroxy-5-oxo-2,5-dihydro-1H-pyrrole-3-carboxamide], the IC50 stood at 5.52 nM.

In the case of `O=C(NCCCc1ccc(Cl)c(Cl)c1)C1=C(O)C(=O)N(CCc2ccccc2Cl)C1` [Example 53, 1-(2-chlorophenethyl)-N-(3-(3,4-dichlorophenyl)propyl)-4-hydroxy-5-oxo-2,5-dihydro-1H-pyrrole-3-carboxamide], the IC50 was found to be 5.24 nM. Then `CC(C)(C)CCN1CC(C(=O)NCCCc2ccc(Cl)c(Cl)c2)=C(O)C1=O` [Example 55, N-(3-(3,4-dichlorophenyl)propyl)-1-(3,3-dimethylbutyl)-4-hydroxy-5-oxo-2,5-dihydro-1H-pyrrole-3-carboxamide], with 5.8 nM; and `CCOCCN1CC(C(=O)NCCCc2ccc(Cl)c(Cl)c2)=C(O)C1=O` [Example 57, N-(3-(3,4-dichlorophenyl)propyl)-1-(2-ethoxyethyl)-4-hydroxy-5-oxo-2,5-dihydro-1H-pyrrole-3-carboxamide], with 6.3 nM. With `O=C(NCCCc1ccc(Cl)c(Cl)c1)C1=C(O)C(=O)N(Cc2cc(Cl)cc(Cl)c2)C1` [Example 60, 1-(3,5-dichlorobenzyl)-N-(3-(3,4-dichlorophenyl)propyl)-4-hydroxy-5-oxo-2,5-dihydro-1H-pyrrole-3-carboxamide], the IC50 worked out at 5.64 nM.

For the compound `O=C(NCCCc1ccc(Cl)c(Cl)c1)C1=C(O)C(=O)N(CCc2ccc(F)cc2)C1` [Example 64, N-(3-(3,4-dichlorophenyl)propyl)-1-(4-fluorophenethyl)-4-hydroxy-5-oxo-2,5-dihydro-1H-pyrrole-3-carboxamide], the IC50 is 5.61 nM.

As for `CC(C)OCCN1CC(C(=O)NCCCc2ccc(Cl)c(Cl)c2)=C(O)C1=O` [Example 65, N-(3-(3,4-dichlorophenyl)propyl)-4-hydroxy-1-(2-isopropoxyethyl)-5-oxo-2,5-dihydro-1H-pyrrole-3-carboxamide], the IC50 turned out to be 1.6 nM. Turning to `CN1CC(C(=O)NCCCc2ccccc2)=C(O)C1=O` [Example 166, 4-hydroxy-1-methyl-5-oxo-N-(3-phenylpropyl)-2,5-dihydro-1H-pyrrole-3-carboxamide], the IC50 was found to be 6440 nM. As for `CN1CC(C(=O)NCCCc2c(Cl)cccc2Cl)=C(O)C1=O` [Example 208, N-(3-(2,6-dichlorophenyl)propyl)-4-hydroxy-1-methyl-5-oxo-2,5-dihydro-1H-pyrrole-3-carboxamide], the IC50 is 384 nM. Then `CC(CCc1ccc(Cl)c(Cl)c1)NC(=O)C1=C(O)C(=O)N(C)C1` (stereo not drawn) [Example 229, N-(4-(3,4-dichlorophenyl)butan-2-yl)-4-hydroxy-1-methyl-5-oxo-2,5-dihydro-1H-pyrrole-3-carboxamide], with 4550 nM; and `CC(C)C(CCc1ccc(Cl)c(Cl)c1)NC(=O)C1=C(O)C(=O)N(C)C1` (stereo not drawn) [Example 230, N-(1-(3,4-dichlorophenyl)-4-methylpentan-3-yl)-4-hydroxy-1-methyl-5-oxo-2,5-dihydro-1H-pyrrole-3-carboxamide], with 9640 nM.

With `CN1CC(C(=O)NC(CCc2ccc(Cl)c(Cl)c2)c2ccccc2)=C(O)C1=O` (stereo not drawn) [Example 235, N-(3-(3,4-dichlorophenyl)-1-phenylpropyl)-4-hydroxy-1-methyl-5-oxo-2,5-dihydro-1H-pyrrole-3-carboxamide], the half-maximal inhibitory concentration (IC50) is 3060 nM.

Take `CCN1CC(C(=O)NCCCc2cccc(OC)n2)=C(O)C1=O` [Example 265, 1-ethyl-4-hydroxy-N-(3-(6-methoxypyridin-2-yl)propyl)-5-oxo-2,5-dihydro-1H-pyrrole-3-carboxamide]: the IC50 stood at 3460 nM.
